Consider one molecule from patent US20240148836A1, “COMPOSITION FOR TREATING CANCER EXPRESSING SPARC” (SEOUL NATIONAL UNIVERSITY R&DB FOUNDATION, priority 2021, published 2024).

Entries after “also recorded” stand apart in the source; their conditions may differ.

In one data set the test system is U87MG tumors. In words: Tumor CDDP accumulation using ICP-MS. It counts as in vivo, mice. The settings on record: 72 h after last of 7 IV doses, FIG. 6B. The method, then:
For tumor CDDP distribution, U87MG or U87MG-shSPARC cells (2×10^6 cells/site) were injected subcutaneously into the right lower flanks. […] At 72 h after the last IV administration (15 days after first administration), mice were euthanized, and the tumor was acquired.
All samples (organs, blood, and tumors) were lyophilized and we analyzed the amount of CDDP using the ICP-MS (NexION 350; Perkin-Elmer, Waltham, MA, USA) installed at the National Center for Inter-university Research Facilities (NCIRF) at Seoul National University.

In the next data set the test system is U87MG cells. The data set can be described thus: Cellular cytotoxicity, Cell Counting Kit-8 (CCK-8) assay. The format is cell-based, Human. The settings on record: 72 h. The method, then:
(§1) Human glioma cells (U87MG) were obtained from American Type Culture Collection (ATCC; Manassas, VA, USA). Low SPARC-expressing U87MG cells, U87MG-shSPARC, were established from a previous study.
(§2) (1) U87MG and U87MG-shSPARC cells were added to 96-well plates (4000 cells/well). […] Cell viability was analyzed using a Cell Counting Kit-8 (CCK-8, Dojindo Molecular Technologies, Tokyo, Japan) assay according to the manufacturer's protocols.
(2) To execute cellular cytotoxicity experiments of HSA bound with CDDPs in different numbers, U87MG cells were added to a 96-well plate (4000 cells/well) and incubated overnight. […] Cell viability was analyzed using a Cell Counting Kit-8 (CCK-8, Dojindo Molecular Technologies, Tokyo, Japan) assay according to the manufacturer's protocols.

Data set [1] concerns U87MG-shSPARC tumor xenograft. In words: Xenograft tumor model, anti-tumor effect in vivo. Also on record: species or system BALB/c nude mice. The method, then:
All animal studies were performed under approval from the Seoul National University Institutional Animal Care and Use Committee (IACUC No. 18-0231, 1 Nov. 2018). BALB/c nude mice (5-week-old, male) were purchased from Orient Bio Inc. (Seongnam, Korea). U87MG or U87MG-shSPARC cells (2×10^6 cells/site) were injected subcutaneously into the right lower flanks.
(§3) The tumor size and body weight of each mouse were recorded every other day. Tumor volume was calculated using the equation V=0.5×L×W^2, where L represents tumor length and W represents tumor width.

The subject of a further data set is U87MG-shSPARC cells. In words: Cellular cytotoxicity, Cell Counting Kit-8 (CCK-8) assay. As to conditions: 72 h, CCK-8, n=5, Table 1. The format is cell-based, Human. The method, then:
as §1, §2
On the technique in general: Formazan colour is commonly taken as a measure of viable cells.

The test system of another data set is U87MG tumor xenograft. The data set can be described thus: Xenograft tumor model, anti-tumor effect in vivo. The settings on record: for weight of mice: xenograft tumor models (U87MG and U87MG-shSPARC), FIG. 5C, 5D, 3 mg/kg IV 7 times. On the set-up: species or system BALB/c nude mice. The method, then:
BALB/c nude mice (5-week-old, male) were purchased from Orient Bio Inc. (Seongnam, Korea). U87MG or U87MG-shSPARC cells (2×10^6 cells/site) were injected subcutaneously into the right lower flanks.
as §3

A short description of data set [2]: Biosafety: body weight and blood biochemical analysis. It counts as in vivo, mice. The method, then:
After centrifugation at 4° C. for 20 min, the plasma was collected for blood biochemical analysis. The concentrations of AST, ALT, BUN, and creatinine were analyzed at DKKorea (Seoul, Korea).

Data set [3] can be described thus: Histopathology examination, H&E staining. The format is in vivo. As to conditions: drug-treated mice, FIG. 7B. From the text:
The kidney, liver, and spleen of the drug-treated mice were acquired and fixed with 4% paraformaldehyde. Tissues were embedded in paraffin and stained with hematoxylin and eosin (H&E). H&E staining images were acquired using an optical microscope (Olympus BX43, Tokyo, Japan).

The nature of data set [4]: TUNEL assay of kidney sections. It counts as in vivo, mice. As to conditions: FIGS. 8A and 8B. From the text: The tumor and kidney were fixed with 4% paraformaldehyde and embedded in paraffin, which was further cut into […] sections. To evaluate cellular apoptosis in kidney, a kidney section was stained using a TUNEL assay kit-HRP-DAB (ab206386; abcam, Cambridge, UK) according to the manufacturer's protocols.

One may read the IC50 as the point on the concentration scale where inhibition reaches its midpoint. Low values mean inhibition by little substance, high ones a need for much substance. For `N.N.[Cl][Pt][Cl]` [CDDP, cis-diamine dichloroplatinum (II)], in the data set with U87MG tumors, the “accumulation of CDDP, U87MG vs U87MG-shSPARC tumors” value was “no difference in CDDP accumulation between U87MG and U87MG-shSPARC”. Also, the IC50 turned out to be 2540 ± 134 nM with U87MG cells (CCK-8, n=5, Table 1); 4720 ± 110 nM in the data set with U87MG cells (CCK-8, n=6, Table 2 (CDDP number-dependent HSA)); 2650 ± 130 nM in the data set on U87MG-shSPARC cells. The survival rate result in data set [1] (U87MG-shSPARC tumor model vs PBS group, FIG. 5F) was “prolonged survival”; in the data set on U87MG tumor xenograft (U87MG tumor model vs PBS group, FIG. 5E) it was “prolonged survival time than the PBS group”. The tumor growth result in data set [1] (U87MG-shSPARC tumor model, 26 days after first drug treatment, 3 mg/kg CDDP equivalent IV every other day 7 times) is “significantly reduced tumor growth than the PBS group”; in the data set with U87MG tumor xenograft (U87MG tumor model, 12 days after first drug treatment, 3 mg/kg CDDP equivalent IV every other day 7 times, p<0.001), “significantly reduced tumor growth than the PBS group”. The Median survival turned out to be 42 days in data set [1] (U87MG-shSPARC tumor xenograft model, 3 mg/kg CDDP equivalent IV 7 times) and 22 days in the data set on U87MG tumor xenograft (U87MG tumor xenograft model, 3 mg/kg CDDP equivalent IV 7 times). For the same molecule, the weight of mice entry with U87MG tumor xenograft was “significantly decreased”; in the data set with U87MG tumor xenograft (listed as CCDP), “significant weight loss compared to the group treated with PBS”. The body weight result in data set [2] (72 h after final treatment (every other day, seven times), FIG. 7A) is “significant body weight loss compared to the PBS and HSA-CDDP groups”. The “blood urea nitrogen (BUN)” value in data set [2] (kidney function, 72 h after final treatment) is given as “increased”. The “H&E staining of kidney tissue” value in data set [3] is recorded as “tubular degeneration; also recorded: extensive epithelial vacuolization; also recorded: degeneration of renal tubules; also recorded: vacuolation of epithelial cells”. The “TUNEL positive cells in kidney” value in data set [4] is reported as “TUNEL positive cells were only identified in the kidney of CDDP-treated mice”.
